# Test results from PubChem BioAssay (NCI).
#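 96-well plates; 48 h exposure; 5 concentrations. Endpoints by linear interpolation between flanking doses. Not reached: highest tested concentration assigned. GI50 = concentration required for 50% inhibition of growth. The concentration for full growth arrest is given as TGI.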
# What was measured:
# Assay in all cases: DTP human tumour cell line panel, 48 h
# [1] = tested on: ACHN renal
# [2] = tested on: HOP-92 NSCLC
# [3] = tested on: MALME-3M melanoma
# [4] = tested on: MDA-MB-231 breast
# [5] = tested on: NCI-H226 lung
# [6] = tested on: NCI/ADR-RES ovarian
# [7] = tested on: PC-3 prostate
# [8] = tested on: RXF 393 renal
# [9] = tested on: SK-MEL-28 melanoma
# [10] = tested on: SK-MEL-5 melanoma
SMILES,TGI [1] [µM],TGI [2] [µM],TGI [3] [µM],TGI [4] [µM],TGI [5] [µM],TGI [6] [µM],TGI [7] [µM],TGI [8] [µM],TGI [9] [µM],TGI [10] [µM],GI50 [2] [µM],GI50 [3] [µM],GI50 [1] [µM],GI50 [5] [µM]
C/C1=C\CC[C@@]2(C)O[C@@H]2C[C@@H]2[C@H](C/C(C)=C/CC1)OC(=O)[C@]21CO1,> 100,> 100,> 100,> 100,> 100,> 100,> 100,> 100,> 100,> 100,–,–,–,–
CC(C)OP(=O)(OC(C)C)/C(=N/Nc1ccc([N+](=O)[O-])cc1)NNC(=O)c1ccccc1,> 100,61.3,> 100,–,> 100,–,–,–,91.3,32,–,–,–,–
CCCc1cn2c(/C=N/N=C(N)N)c(-c3ccc([N+](=O)[O-])cc3)nc2s1,2.88,74,3.86,3.51,3.33,–,7.01,–,4.66,54,–,–,–,–
CC(C)(Cl)C(Cl)CC/C(CBr)=C(\Cl)CBr (stereo not given),13.9,3.63,4.83,4.42,5.28,7.9,8.56,3.78,4.38,3.74,–,–,–,–
O=C(O)CCC1(CCC(=O)O)CCCCCCCCC(CCC(=O)O)(CCC(=O)O)C(=O)C1=O,> 100,> 100,> 100,–,> 100,> 100,> 100,–,> 100,–,–,–,–,–
Cc1cc2nc3c(C#N)c4c(c(Cl)n3c2cc1C)CCC4,55.9,95.5,> 100,35.1,> 100,46.2,–,32.1,88.9,50.1,–,–,–,–
Cc1cc(N(CCC#N)CCC#N)ccc1/C=C(\N=[N+]=[N-])C(=O)NC(=O)COc1ccccc1,> 100,> 100,> 100,–,> 100,–,–,97.5,> 100,> 100,–,–,–,–
COc1ccc(OC)c(CCc2ccccc2CC(=O)O)c1,> 100,> 100,> 100,–,> 100,–,–,> 100,> 100,> 100,–,–,–,–
Cc1ccc(/C=C2\CCS(=O)(=O)c3ccccc3C2=O)cc1,28.6,31,–,34.6,36.2,28.2,45.3,44.2,39.1,–,–,–,–,–
CCCCCCCC(=O)OC(COC(=O)Cc1ccccc1)COC(=O)C(C)(C)C (stereo not given),> 100,> 100,> 100,–,> 100,–,–,–,> 100,> 100,–,–,–,–
COc1c(-c2ccc(F)cc2)oc2c(CC(=O)O)cccc2c1=O,> 100,–,> 100,> 100,> 100,> 100,> 100,> 100,–,> 100,–,–,–,–
O=C1NC(NNc2ccccc2)=N/C1=C\c1ccco1,25.9,30.6,81.6,54.7,–,> 100,71.5,28.6,68.5,> 100,–,–,–,–
Cc1nc2c(n1Cc1ccc(F)cc1)C(=O)c1ccccc1C2=O,> 100,–,31.7,–,> 100,–,–,87.3,> 100,24.7,–,–,–,–
CC1=C(N2CC2)C(=O)C(C)=C(N2CC2)C1=O,0.445,0.988,0.541,> 100,1.18,0.0574,–,0.329,1.26,0.363,–,–,–,–
CCCCCC1CC(C(C)=O)CN1c1ccc(F)cc1 (stereo not given),> 100,83.6,> 100,–,–,–,–,> 100,> 100,38.3,–,–,–,–
C=C1C(=O)O[C@H]2C1C[C@H](O)/C(C)=C/CC[C@@]1(C)O[C@H]21 (stereo not given in full),22,33,19.5,38.4,–,33.7,–,31.9,38.7,22.6,–,–,–,–
COc1ccc2nc3c([N+](=O)[O-])ccc4c3c(c2c1)N=CN4CCN(C)C,16.6,26.1,14.5,10.7,20.3,22,35.4,–,39.5,7.81,–,–,–,–
CCOC(OCC)[C@@H]1C[C@@H]2N(O[C@H](OC3CCCC3(c3ccccc3)c3ccccc3)[C@H](OC(C)=O)[C@@]2(CC)Cc2ccc(OC)c(OC)c2)O1 (stereo not given in full),> 100,–,–,> 100,> 100,> 100,> 100,> 100,> 100,> 100,–,–,–,–
O=C(/C=C/c1ccc(Cl)cc1)c1nc2ccccc2[nH]1,> 100,> 100,> 100,> 100,> 100,> 100,> 100,–,> 100,> 100,–,–,–,–
CCC/C=C/C=C\C(=O)O[C@@H]1[C@@H](C)[C@]2(O)[C@@H]3C=C(C)C(=O)[C@H]3CC(COC(C)=O)=C[C@H]2[C@@H]2C(C)(C)[C@]12OC(C)=O,–,156,86.6,–,> 97.6,114,–,113,86.7,108,–,–,–,–
CSc1c(S(C)=O)c2ccccc2n1C (stereo not given),> 100,–,> 100,> 100,> 100,> 100,> 100,> 100,> 100,> 100,–,–,–,–
CC(=O)c1ccc(Nc2nc3ccccc3c3occc23)cc1,60.2,49.8,63.4,> 100,98,58,> 100,–,15.9,28.2,–,–,–,–
CC(=O)Oc1ccc(C)c2c1[C@H]1CC[C@]3(C)[C@@H](OC(C)=O)CC[C@H]3[C@@H]1CC2,29.8,30.9,30.4,33.9,54.8,40.4,–,35.4,33.2,34.9,–,–,–,–
N#C/C(=C\c1ccccc1F)C(=O)c1ccccc1,> 100,> 100,> 100,–,–,–,–,–,> 100,> 100,–,–,–,–
Cc1cnc2c(c1)C(=O)N(c1ccc(Br)cc1)S2(=O)=O,> 100,–,> 100,> 100,> 100,> 100,> 100,–,> 100,> 100,–,–,–,–

SMILES,TGI [1] [µM],TGI [2] [µM],TGI [3] [µM],TGI [4] [µM],TGI [5] [µM],TGI [6] [µM],TGI [7] [µM],TGI [8] [µM],TGI [9] [µM],TGI [10] [µM],GI50 [2] [µM],GI50 [3] [µM],GI50 [1] [µM],GI50 [5] [µM]
O=C(N/N=C/c1cc(Cl)cc(Cl)c1[O-])c1ccccc1O.O=C(N/N=C/c1cc(Cl)cc(Cl)c1[O-])c1ccccc1O.[Fe+2],27.7,8.33,61.9,–,33.5,–,–,28.8,40.6,–,3.4,22,–,–
CC(C)(C)C1CCC2c3c([nH]c4ccccc34)C3C(=O)N(c4cc(Cl)ccc4Cl)C(=O)C3C2C1 (stereo not given),> 100,> 100,> 100,> 100,> 100,> 100,> 100,> 100,–,> 100,–,–,–,–
CCOC(=O)C(CCSC)(CCSC)C(=O)OCC,> 100,–,> 100,> 100,> 100,> 100,> 100,> 100,> 100,> 100,–,–,–,–
COc1cccc(C2c3cc4c(cc3OC(NNC(N)=O)C2C)OCO4)c1OC (stereo not given),> 100,57.8,73.8,81.6,76.1,–,55,49.9,72.7,43.9,–,–,–,–
CC(Cn1c(=O)oc2ccccc21)N(C)C (stereo not given),> 100,–,> 100,> 100,> 100,> 100,> 100,> 100,> 100,> 100,–,–,–,–
O=C(O)c1ccccc1/C=N\N(CCO)C1=NCCN1,> 100,> 100,> 100,> 100,> 100,–,> 100,> 100,> 100,> 100,–,–,–,–
CN(CCO)c1nc(=O)c2c(n1C1OC(CO)C(O)C(O)C1O)CCCC2 (stereo not given),> 100,> 100,> 100,–,> 100,–,–,> 100,> 100,> 100,–,–,–,–
CCOC(=O)C(C(=O)OCC)S(C)(=O)=O,> 100,> 100,> 100,–,> 100,–,–,> 100,> 100,> 100,–,–,–,–
O=C1/C(=C/c2cccc([N+](=O)[O-])c2)Cc2ccccc21,> 100,> 100,> 100,> 100,> 100,> 100,> 100,–,> 100,–,–,–,–,–
NCCCC(N)(C(=O)O)C(F)F (stereo not given),–,> 5000,> 5000,–,> 5000,> 5000,–,> 5000,> 5000,> 5000,–,–,–,–
COc1cc(Cn2c3ccccc3c3cc(C)cc(OC)c32)cc2c1[nH]c1ccccc12,> 25,> 25,> 25,–,> 25,–,–,–,> 25,> 25,5.39,–,12.2,17
CC(=O)C(C(=O)C(=O)Nc1cc(Cl)c(Cl)cc1Cl)c1csc(N)n1 (stereo not given),> 100,> 100,–,–,> 100,–,–,> 100,> 100,> 100,–,–,–,–
CN(C)C1(N(C)C)Oc2c(c(=O)n(C)c(=O)n2C)C(c2ccc(F)cc2)C1(F)F (stereo not given),> 100,> 100,–,> 100,> 100,> 100,> 100,> 100,> 100,> 100,–,–,–,–
CC(C)(CN1CCCCC1)C(=O)CC(SCCS(=O)(=O)O)c1ccccc1 (stereo not given),52.9,25.3,33.3,32.4,62,70.6,77.1,35,–,31.4,–,–,–,–
COc1cc2cnc3c4cc(O)ccc4ccc3c2cc1OC,> 100,> 100,> 100,–,> 100,–,–,> 100,> 100,> 100,–,–,–,–
O=S1(=O)OCCOS(=O)(=O)C1(Br)Br,–,> 100,> 100,–,94.1,–,–,–,> 100,> 100,–,–,–,–
CC(c1ccccc1)n1c2ccccc2c2c(N)ncnc21 (stereo not given),31.9,27.6,36,34.9,–,46.3,34.4,33.5,33.8,33.9,–,–,–,–
COc1ccccc1NC(=O)C(=O)C(c1cnc2ccc([N+](=O)[O-])cc2n1)[N+](=O)[O-] (stereo not given),> 100,> 100,> 100,–,> 100,–,–,> 100,> 100,> 100,–,–,–,–
CCOC(=O)c1c(Br)c(-c2ccc([N+](=O)[O-])cc2)c(Br)n1C,> 10,> 10,> 10,> 10,> 10,> 10,> 10,–,> 10,> 10,–,–,–,–
COC(=O)CCc1cc(OC)c2oc(-c3ccc(OC)c(OC)c3)c(CO)c2c1,> 100,> 100,> 100,> 100,> 100,> 100,> 100,–,> 100,> 100,–,–,–,–
C/C(CC(=O)Nc1cccc([N+](=O)[O-])c1)=N/NC(N)=S,> 100,> 100,> 100,–,> 100,–,–,> 100,> 100,> 100,–,–,–,–
O=C1CS(=O)c2ccccc2N1 (stereo not given),> 100,> 100,> 100,–,> 100,–,–,> 100,> 100,> 100,–,–,–,–
CC(=O)O[C@H]1C(=O)[C@@]2(C)[C@H]([C@H](OC(=O)c3ccccc3)[C@]3(O)C[C@H](OC(=O)[C@H](O)[C@@H](NC(=O)OC(C)(C)C)c4ccco4)C(C)=C1C3(C)C)[C@]1(OC(C)=O)CO[C@@H]1C[C@@H]2O,> 48.1,43.5,> 47,14.7,–,0.643,> 50,0.0338,> 28.3,19,–,–,–,–
CCOC(=O)NC(C(F)(F)F)(C(F)(F)F)P(=O)(OCC)OCC,> 100,> 100,> 100,> 100,> 100,> 100,> 100,44.1,> 100,–,–,–,–,–
